Assay results taken from article PMC3401542 (Bioorganic & medicinal chemistry, 2012).
Like-named read-outs stand apart in the source and are kept apart here.

Experiments:
[1] = target: neuraminidase of A/Brisbane/59/07 (H1N1) (Influenza A virus, UniProt D5F1R0); experiment: biochemical; format: biochemical
[2] = target: neuraminidase of A/Uruguay/716/07 (H3N2) (Influenza A virus, UniProt I6VF55); format: biochemical; conditions: read-out: Inhibition of Neuraminidase, IC50
[3] = target: neuraminidase of A/Solomon Islands/3/06 (H1N1) (Influenza A virus, UniProt B4URD9); format: biochemical; conditions: read-out: Inhibition of Neuraminidase, IC50
[4] = target: neuraminidase of B/Malaysia/5206/04 (Influenza B virus, UniProt Q38G90); experiment: Neuraminidase inhibition, fluorogenic MUNANA substrate, purified intact virions; format: biochemical; conditions: read-out: Inhibition of Neuraminidase, IC50
N2 NAs = conditions: read-out: inhibition (IC50) of N2 NAs; range over N2 NAs; ref [28]; cited from earlier work
type B NAs = conditions: read-out: inhibition (IC50) of type B NAs; range over type B NAs; ref [28]; cited from earlier work

| Molecule | IC50 [1] [µM] | improved N1 NA activity compared to the parent 3 [1] | also measured |
| --- | --- | --- | --- |
| CCC(CC)Cc1cc(C(=O)O)ccc1N1C(=O)CCC1(CO)CO [Compound 14b, 4-(2,2-Bis (hydroxymethyl)-5-oxopyrrolidin-1-yl)-3-(2-ethylbutyl)benzoic Acid] | 1.6 ± 0.6 | 30–40 fold |  |
| CC(C)Cc1cc(C(=O)O)ccc1N1C(=O)CCC1(CO)CO [Compound 13c, 4-(2,2-Bis (hydroxymethyl)-5-oxopyrrolidin-1-yl)-3-isobutylbenzoic Acid] | 70 ± 7.8 |  |  |
| CCC(C)OCc1cc(C(=O)O)ccc1N1C(=O)CCC1(CO)CO (centres unmarked) [Compound 10b, 4-(2,2-Bis(hydroxymethyl)-5-oxopyrrolidin-1-yl)-3-(2-butoxymethyl)benzoic Acid] | 16 ± 2.1 |  |  |
| CCC(=Cc1cc(C(=O)O)ccc1N1C(=O)CCC1(CO)CO)CC [Compound 13b, 4-(2,2-Bis (hydroxymethyl)-5-oxopyrrolidin-1-yl)-3-(2-ethylbut-1-enyl)benzoic Acid] | 2.4 ± 0.9 | 30–40 fold |  |
| 4-(2,2-Bis(hydroxymethyl)-3-((3-pentyloxy)methyl)-5-oxopyrrolidin-1-yl)benzoic Acid [Compound 10c] |  | 80–100 fold | IC50 [2]: 500 ± 100 nM; IC50 [3]: 800 ± 70 nM; IC50 [4]: 30 ± 1.4 µM; IC50 ([1]; read-out: Inhibition of Neuraminidase, IC50): 1 ± 0.21 µM |
| CC(C)OCc1cc(C(=O)O)ccc1N1C(=O)CCC1(CO)CO [Compound 10a, 4-(2,2-Bis(hydroxymethyl)-5-oxopyrrolidin-1-yl)-3-(isopropoxymethyl)benzoic Acid] | > 10000 |  |  |
| CCC(CC)O[C@@H]1C=C(C(=O)O)C[C@H](N)[C@H]1NC(C)=O [Compound 1c, oseltamivir carboxylate] |  |  | IC50 (N2 NAs): 0.68 to 1.78 nM; IC50 (type B NAs): 5 to 24.3 nM |
